The source of these data is ChEMBL document CHEMBL4732177 (J Med Chem, 2021).

Data set [1] addresses T1, Neurotensin receptor type 2 (Homo sapiens, UniProt O95665). Description: Binding affinity to NTS2 (unknown origin).
Data set [2] addresses Neurotensin receptor type 1 (Mus musculus, UniProt O88319). Description: Displacement of [3H]-neurotensin from NTS1 in mouse brain membrane incubated for 30 mins by liquid scintillation counter analysis. The data set is classed as cell membranes. On the technique in general: Loss of bound radioactivity is the signal in a displacement assay; it reports binding, not function.

The subject of data set [3] is Rattus norvegicus. Description: Antinociceptive activity in Sprague-Dawley rat model assessed as maximum possible effect at 150 microg/kg, IT measured every 10 mins for 60 mins by radiant heat tail-flick test relative to control. Format: functional. The note with it: dose 150 µg/kg, 1 h. For orientation: Thermal pain tests record how soon the animal reacts.
In data set [4] the test system is Ileum. Description: Myorelaxant activity in Sprague-Dawley rat ileum assessed as reduction in carbachol-induced contractions by force transducer relaxation assay. Format: functional, tissue-based.
Data set [5] is described as follows: Stability of compound in rat CSF assessed as half life at 1 mM incubated for 24 hrs by UPLC-MS analysis. The data set is classed as ADME, tissue-based, Cerebrospinal fluid.
Data set [6] can be described thus: Cardiotoxicity in Sprague-Dawley rat assessed as decrease in mean arterial blood pressure at 0.1 mg/kg, iv measured up to 1000 seconds. Format: toxicity, organism-based. To be noted: in vivo, time <=1000 sec.
The nature of data set [7]: Stability of compound in rat plasma assessed as half life at 1 mM incubated for 1 to 20 mins by UPLC-MS analysis. Format: ADME, cell-free. To be noted: time 1-20 min.
For data set [8], the species on record is Rattus norvegicus. Briefly: animal or person. The note with it: Sprague-Dawley, sc, 1 h.
Description: Antinociceptive activity in Sprague-Dawley rat model assessed as effective dose administered subcutaneously and measured every 10 mins for 60 mins by radiant heat tail-flick test
In data set [9] the test system is Rattus norvegicus. Briefly: Antinociceptive activity in Sprague-Dawley rat model assessed as maximum possible effect at 10 mg/kg, sc measured every 10 mins for 60 mins by radiant heat tail-flick test relative to control. Format: functional. The note with it: 1 h.
Data set [10] deals with Rattus norvegicus. Description: Antinociceptive activity in Sprague-Dawley rat model administered subcutaneously and measured every 10 mins for 60 mins by radiant heat tail-flick test. The note with it: dose 1-10 mg/kg. The data set is classed as functional, organism-based.
The subject of data set [11] is Rattus norvegicus. Description: Antinociceptive activity in Sprague-Dawley rat model assessed as maximum possible effect at 30 microg/kg, IT measured every 10 mins for 60 mins by radiant heat tail-flick test relative to control. To be noted: dose 30 µg/kg, 1 h. Format: functional.
The subject of data set [12] is Rattus norvegicus. Description: Antinociceptive activity in Sprague-Dawley rat model assessed as maximum possible effect at 60 microg/kg, IT measured every 10 mins for 60 mins by radiant heat tail-flick test relative to control. Format: functional. To be noted: dose 60 µg/kg, 1 h.
The target of data set [13] is Neurotensin receptor type 1 (Homo sapiens, UniProt P30989). Briefly: Displacement of [125I]Tyr3-neurotensin from human recombinant NTS1 stably expressed in CHO-K1 cell membranes incubated for 60 mins by gamma counter analysis. Also on record: species or system Cell membrane.
Sequence of Neurotensin receptor type 1 (Homo sapiens, UniProt P30989) (P30989 whole entry): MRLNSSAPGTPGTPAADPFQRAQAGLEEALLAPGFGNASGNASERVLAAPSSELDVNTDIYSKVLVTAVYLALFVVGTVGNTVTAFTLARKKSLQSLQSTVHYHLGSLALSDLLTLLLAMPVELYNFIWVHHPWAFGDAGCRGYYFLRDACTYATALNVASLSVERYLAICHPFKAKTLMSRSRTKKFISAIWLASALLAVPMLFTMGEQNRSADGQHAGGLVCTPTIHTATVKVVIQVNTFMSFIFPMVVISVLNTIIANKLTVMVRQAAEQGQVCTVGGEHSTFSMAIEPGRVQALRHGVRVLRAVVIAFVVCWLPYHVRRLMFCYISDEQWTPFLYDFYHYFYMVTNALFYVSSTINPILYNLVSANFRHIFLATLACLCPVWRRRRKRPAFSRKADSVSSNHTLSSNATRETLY
Data set [14] has as its system Rattus norvegicus. Briefly: Antinociceptive activity in Sprague-Dawley rat model assessed as effective dose administered intrathecally and measured every 10 mins for 60 mins by radiant heat tail-flick test. The data set is classed as functional. To be noted: central, 1 h.
A short description of data set [15]: Induction of hypothermia in Sprague-Dawley rat assessed as reduction in body temperature at 150 microg/kg, IT measured every 10 mins upto 60 mins by thermistor probe analysis. To be noted: in vivo, icv_or_intrathecal, 0.15 mg/kg, dose 150 µg/kg.
The test system of data set [16] is Rattus norvegicus. Description: Antinociceptive activity in Sprague-Dawley rat model of formalin-induced nociception pain assessed as reduction in pain behaviour by measuring less lifting of formalin injected hind paw during acute phase at 30 to 150 microg/kg, IT measured for 9 mins. Format: functional, organism-based. To be noted: dose 30-150 µg/kg.
Data set [17] relates to Rattus norvegicus. Briefly: Antinociceptive activity in Sprague-Dawley rat model assessed as maximum possible effect at 90 microg/kg, IT measured every 10 mins for 60 mins by radiant heat tail-flick test relative to control. Format: functional. The note with it: dose 90 µg/kg, 1 h.
For data set [18], the system named is Rattus norvegicus. Briefly: Antinociceptive activity in Sprague-Dawley rat model assessed as effective dose administered intrathecally and co-treated with opioid antagonist naloxone and measured every 10 mins for 60 mins by radiant heat tail-flick test. Format: functional, organism-based.
Data set [19] has as its system Rattus norvegicus. Description: Antinociceptive activity in Sprague-Dawley rat model of formalin-induced nociception pain assessed as reduction in pain behaviour by measuring less lifting of formalin injected hind paw during inflammatory phase at 30 to 150 microg/kg, IT. To be noted: dose 30-150 µg/kg, time 21-60 min. Format: functional, organism-based.
Data set [20] has as its target T1, Neurotensin receptor type 2. Briefly: Displacement of [125I]Tyr3-neurotensin from human recombinant NTS2 stably expressed in human 1321N1 cell membranes incubated for 60 mins by gamma counter analysis. Also on record: species or system Cell membrane.
Data set [21] has as its system Rattus norvegicus. Description: Antinociceptive activity in Sprague-Dawley rat model assessed as maximum possible effect at 10 microg/kg, IT measured every 10 mins for 60 mins by radiant heat tail-flick test relative to control. Format: functional. To be noted: dose 10 µg/kg, 1 h.
A short description of data set [22]: Cardiotoxicity in Sprague-Dawley rat assessed as induction of […] at 1 mg/kg, iv measured up to 1000 seconds. The data set is classed as toxicity, organism-based. To be noted: in vivo, 0.2778 h, time 1000 sec.
Data set [23] has as its system Rattus norvegicus. Briefly: Antiallodynic activity in Sprague-Dawley rat model of complete Freund's adjuvant-induced chronic inflammatory pain assessed as increase in paw withdrawl threshold at 150 microg/kg, IT dosed on day 7 and 14 measured at 15 to 120 mins post dose relative to control. Format: functional. The note with it: dose 150 µg/kg; time 7-14 day.
For data set [24], the system named is Rattus norvegicus. Briefly: Antinociceptive activity in Sprague-Dawley rat model assessed as maximum efficacy causing increase in tail withdrawal latency administered intrathecally measured every 10 mins for 60 mins by radiant heat tail-flick test. The data set is classed as functional. To be noted: 1 h.
Data set [25] is described as follows: Cardiotoxicity in Sprague-Dawley rat assessed as decrease in mean arterial blood pressure at 0.01 to 1 mg/kg, iv measured up to 1000 seconds. The data set is classed as toxicity, organism-based. To be noted: in vivo, dose 0.01-1 mg/kg, time <=1000 sec.
The subject of data set [26] is Ileum. Briefly: Myorelaxant activity in Sprague-Dawley rat ileum assessed as reduction in carbachol-induced contractions at 10 ^-11 to 10^-5 M by force transducer relaxation assay. Format: tissue-based. To be noted: dose lower 1e-05 µM, dose upper 10 µM.
For data set [27], the system named is Rattus norvegicus. Briefly: Antinociceptive activity in Sprague-Dawley rat model assessed as increased in tail withdrawal latency administered intrathecally measured every 10 mins for 60 mins by radiant heat tail-flick test. The data set is classed as functional, organism-based. The note with it: dose 10-150 µg/kg.

Molecules are shown by their SMILES. The source made the active and inactive calls. Bridge positions count the residues as written; N and C are the ends. Square brackets hold non-standard residues; d marks the D form. Peptide text beside a SMILES is read from it. NMeR = CN[C@@H](CCCNC(=N)N)C(=O)O; Pen = CC(C)(S)[C@H](N)C(=O)O

T1 sequence (O95665 whole entry): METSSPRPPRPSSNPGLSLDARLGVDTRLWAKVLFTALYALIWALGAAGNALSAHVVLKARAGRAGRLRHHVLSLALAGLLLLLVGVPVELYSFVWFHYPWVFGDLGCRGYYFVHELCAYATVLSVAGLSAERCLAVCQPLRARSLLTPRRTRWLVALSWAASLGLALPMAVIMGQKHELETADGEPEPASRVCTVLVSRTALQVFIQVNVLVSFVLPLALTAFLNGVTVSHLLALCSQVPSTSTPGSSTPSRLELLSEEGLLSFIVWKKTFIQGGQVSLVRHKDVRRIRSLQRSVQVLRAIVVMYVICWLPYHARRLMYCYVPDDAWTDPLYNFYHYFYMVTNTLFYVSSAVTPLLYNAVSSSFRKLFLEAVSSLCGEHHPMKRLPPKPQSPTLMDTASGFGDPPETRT
Sequence of Neurotensin receptor type 1 (Mus musculus, UniProt O88319) (O88319 whole entry): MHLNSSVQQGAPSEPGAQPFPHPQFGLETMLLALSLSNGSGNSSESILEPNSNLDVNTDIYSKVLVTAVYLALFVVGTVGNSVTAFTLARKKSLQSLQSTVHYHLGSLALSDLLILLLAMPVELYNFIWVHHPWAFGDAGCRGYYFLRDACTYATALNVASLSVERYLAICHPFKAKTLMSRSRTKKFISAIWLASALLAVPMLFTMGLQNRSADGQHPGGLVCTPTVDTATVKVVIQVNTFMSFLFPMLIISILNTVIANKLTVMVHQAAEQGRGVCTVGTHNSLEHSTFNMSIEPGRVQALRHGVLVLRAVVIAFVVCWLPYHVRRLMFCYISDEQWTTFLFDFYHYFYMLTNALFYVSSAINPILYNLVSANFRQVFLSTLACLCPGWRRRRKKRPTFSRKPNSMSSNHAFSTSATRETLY

Broadly, the Ki is the equilibrium dissociation constant of an inhibitor or competing ligand from its target. In data set [1], `CC[C@H](C)[C@H](NC(=O)[C@@H]1Cc2ccc(O)c(c2)C/C=C/CCCCCC[C@H](N)C(=O)N[C@@H](CCCCN)C(=O)N2CCC[C@H]2C(=O)N1)C(=O)N[C@@H](CC(C)C)C(=O)O` displayed a Ki of 0.024 µM.
As to `CN[C@@H](CCCNC(=N)N)C(=O)N[C@H]1CSSC(C)(C)[C@@H](C(=O)N[C@@H](CC(C)C)C(=O)O)NC(=O)[C@H](Cc2c[nH]c3ccccc23)NC(=O)[C@@H]2CCCN2C1=O` (H-[NMeR]CPW[Pen]L-OH; disulfide 2-5), in data set [2], affinity was put at a Ki of 0.083 µM.
The same measure, in the same setting: in the case of `CN[C@@H](CCCNC(=N)N)C(=O)N[C@H]1CCCCNC(=O)CC[C@@H](C(=O)N[C@@H](CC(C)C)C(=O)O)NC(=O)[C@H](Cc2c[nH]c3ccccc23)NC(=O)[C@@H]2CCCN2C1=O` (H-[NMeR]KPWEL-OH; lactam 2-5) it was 0.77 µM.
With `CC[C@H](C)[C@H](NC(=O)[C@@H]1Cc2ccc(O)c(c2)C/C=C/CNCCC[C@H](N)C(=O)N[C@@H](CCCCN)C(=O)N2CCC[C@H]2C(=O)N1)C(=O)N[C@@H](CC(C)C)C(=O)O`, in data set [1], the Ki came to 0.0045 µM. Moreover, the MPE in the data set with Rattus norvegicus [3] stood at 50%.
For orientation: EC50 means the concentration that produces a half-maximal response. The term half-life denotes the time in which the quantity being followed falls by half. With `CC[C@H](C)[C@H](NC(=O)[C@H](Cc1ccc(O)cc1)NC(=O)[C@@H]1CCCN1C(=O)[C@H](CCCNC(=N)N)NC(=O)[C@@H](N)CCCNC(=N)N)C(=O)N[C@@H](CC(C)C)C(=O)O`, the Activity entry with Ileum [4] is “Dose-dependent effect”; in [6], “<= 50 mmHg”. Also, in the data set with Ileum [4], the EC50 came to 0.0039 µM. For the same compound, the values for the half-life at 1000 µM in data set [5] and in data set [7] were 894 min and 1.6 min, respectively.
For orientation: ED50 means the midpoint of the dose-response relation. As for `CN1CC[C@]23c4c5ccc(O)c4O[C@H]2[C@@H](O)C=C[C@H]3[C@H]1C5` [MORPHINE], the ED50 in the data set listed under Rattus norvegicus [8] stood at 3.6 mg/kg. Further, the MPE in the data set with Rattus norvegicus [9] stood at 83.3%. In addition, in the data set on Rattus norvegicus [10], the Activity entry was “Dose-dependent effect”.
Regarding `CC(C)C[C@H](NC(=O)[C@H](Cc1ccc(O)cc1)NC(=O)[C@@H]1C/C=C\C[C@H](N)C(=O)N[C@@H](CCCCN)C(=O)N[C@@H](CCCCN)C(=O)N1)C(=O)O`, the MPE amounted to 32.5% with Rattus norvegicus [11]; 73.1% in the data set on Rattus norvegicus [12]; 98.6% in the data set on Rattus norvegicus [17]; 98.5% in the data set with Rattus norvegicus [3]; 13.1% in the data set with Rattus norvegicus [21]. For the same compound, the results for the Ki in data set [13] and in [20] were over 100 µM and 0.05 µM, respectively. Further, the ED50 in the data set with Rattus norvegicus [14] came out at 0.0438 mg/kg. In addition, the Activity entry is on record as “Non-Toxic” in data set [15]; “Non-Toxic” in data set [6]; “Toxic” in [22]; “<=45%” with Rattus norvegicus [23]; “Non-Toxic” in data set [25]; “Non-Toxic” with Ileum [26]. The Activity result with Rattus norvegicus [27] was “Dose-dependent effect”. Moreover, the outcome in the data set with Rattus norvegicus [16], in the data set on Rattus norvegicus [18] and in the data set on Rattus norvegicus [19] was Active. Further, the half-life at 1000 µM in data set [5] was over 1440 min; in data set [7] it was 15 min. For the same compound, the Emax in the data set on Rattus norvegicus [24] was 90 µg/kg.
